The test system of one data set is LoVo cells. Nature of the data set: single-cell plating technique, colony-inhibiting efficacy of Doxorubicin alone or in combination on Doxorubicin-sensitive cells. It counts as cell-based, human. The settings on record: Doxorubicin alone. As to the method:
(§1) LoVo and LoVo/DX cells (human colon adenocarcinoma cell lines sensitive and resistant to Doxorubicin, respectively) were maintained at 37° C. in a humidified atmosphere of 5% CO2. Culture medium was Ham's F12 supplemented with 10% foetal calf serum, 1% vitamins (BME vitamin solution 100 X), and 1% glutamine (200 mM). Both cell lines were passaged twice weekly.
(§2) Doxorubicin, from Farmitalia Carlo erba, was dissolved in sterile water, and the concentrations were checked spectro-photometrically. Solutions of the compounds of the invention using ethanol were prepared immediately before use.
(§3) A single-cell plating technique was utilized for measuring the colony-inhibiting efficacy of drugs alone or drug combinations.
(§4) Exponentially growing LoVo and LoVo/DX cells were adjusted to the concentration of 300 cells.ml^-1 and seeded in 36mm Petri dishes (2 ml/dish).
(§5) After 48h incubation, medium was withdrawn and solutions of invention compounds alone, or Doxorubicin alone or solutions of the combination of both compounds, were added. […]
(§6) Survival was determined as the percentage of colonies in treated samples vs untreated ones. For combination of the compounds of the invention and doxorubicin, survival was calculated using as controls the number of colonies in samples treated with compounds of the invention alone.

The test system of a further data set is LoVo/DX cells. Nature of the data set: single-cell plating technique, colony-inhibiting efficacy of Doxorubicin alone or in combination on Doxorubicin-resistant cells. It counts as cell-based, human. As to the method: as §1, §2, §3, §4, §5, §6
A short description of data set [1]: orientative acute toxicity after single oral administration to mice. The settings on record: mouse, in vivo, assessed on the seventh day. The procedure: Mice which had been deprived of food for nine hours were treated orally with single administrations of increasing doses of compounds of the invention, then housed and normally fed. For example the orientative acut toxicity (LD50) of the compound FCE 24265, assessed on the seventh day after treatment, was higher than 800 mg/kg. In view of their low toxicity the compounds of the invention can be safely used in medicine.

As a reminder, the LD50 is the dose expected to kill half of the subjects tested.

Molecules are shown by their SMILES. Like-named read-outs stand apart in the source and are kept apart here. A value given as a limit tells only on which side of the number the result lay.

In the case of `COc1cccc2c1C(=O)c1c(O)c3c(c(O)c1C2=O)C[C@@](O)(C(=O)CO)C[C@@H]3O[C@H]1C[C@H](N)[C@H](O)[C@H](C)O1` [Doxorubicin], the IC50 was 0.1 µg/mL in the data set with LoVo cells; approximately 0.1 µg/mL in the data set on LoVo cells (Homo sapiens, LoVo, read-out: IC50); 4.91 µg/mL in the data set on LoVo/DX cells (Homo sapiens, LoVo/DX, 4 h, read-out: IC50 = Concentration inhibiting 50% of colony formation). Further, the “R.I. (Resistance Index)” value with LoVo/DX cells (Doxorubicin alone, LoVo/DX vs LoVo cells, 240 min) was 49.1.
Turning to `CCOC(=O)C1=C(C)NC(C)=C(C(=O)OCC)C1c1cccc(-n2ccnc2)c1` [FCE 24265, 1,4-Dihydro-2,6-dimethyl-4-[3-(1H-imidazol-1-yl)phenyl]-3,5-pyridinedicarboxylic acid, diethyl ester], the LD50 at 168 h in data set [1] was more than 800 mg/kg.

Source of the values: patent publication US5362729A, “Dihydropyridine derivatives useful in antitumor therapy” (Farmitalia Carlo ERBA S.r.l., priority 1991, dated 1994).
